Reference: paper PMC11391541, “Target-Directed Dynamic Combinatorial Chemistry Affords Binders of Mycobacterium tuberculosis IspE” (ACS Omega, 2024)
Values after ≈ are worked out from the molar mass of the structure shown.

How the values were obtained:
[1] = solubility in M. tuberculosis 7H9 growth medium; assay type: physicochemical; conditions: Mtb 7H9 growth medium
Experimental: Prior to biological evaluation of the tdDCC hits, we tested their solubility in a standard buffer as well as in M. tuberculosis 7H9 growth medium. […] Regrettably, with 3.3 μM the least soluble compound is E1, making our most amplified and promising compound unsuitable for biological evaluation. We assessed the solubility in Mtb growth medium given that it is a complex, nutrient-rich environment with a distinct solubility profile. However, the trend continued, only seven hits are soluble at 8 μM or above, the remaining five compounds, including E1, were not eligible for antitubercular activity testing (Table 1).
Determination of in vitro anti-tubercular activity and solubility in 7H9 medium Anti-tubercular tests were performed as previously described .1 In brief, 7H9 complete medium (BD Difco; Becton Dickinson, Maryland,USA) supplemented with 10% OADC (BD), 0.2% glycerol, and 0.05% Tween80 as previously described ,3 was used to culture Mycobacterium tuberculosis (Mtb) strain H37Rv (ATCC 25618) carrying a mCherry -expressing plasmid (pCherry10 ).4 Cultures were harvested at mid-log phase and frozen in aliquots at – 80 °C. Prior to testing aliquots were thawed followed by centrifugation and the pellet was resuspended in 7H9 medium with 10% OADC (without glycerol and Tween80). This was further thoroughly resuspended by passing it through a syringe with a 26 -gauge needle to avoid clumping of the bacteria. 2×10^5 CFU (colony forming units) were then cultured in a total volume of 100 μl culture medium (triplicates) to test the non-precipitating compounds for the anti-tubercular activity at the concentrations indicated. For these assays, 96-well flat clear bottom black polystyrene microplates (Corning® CellBIND®, Merck, New York, USA) wer e used. Each plate had Rifampicin (at 1 μg/ml and 0.1 μg/ml) (National Reference Center, Borstel) as a reference compound. Plates were sealed with an air -permeable membrane (Porvair Sciences, Wrexham, UK) in a 37 °C incubator with mild agitation (TiMix5, Edmund Bühler, Germany). The activity of compounds was determined after 7 days by measuring the bacterial growth as relative light units (RLU) from the fluorescence intensity obtained at an excitation wavelength of 575 nm and an emission wavelength of 635 n m in a microplate reader (Synergy 2, BioTek Instruments, Vermont, USA). Two independent experiments (each in triplicates) were performed, and all values were normalized to untreated control sample (100%) in each experiment.
To obtain information regarding the toxicity of our compounds, their impact on the viability of human cells was investigated. HepG2 cells (2x10^4 cells per well) were seeded in 96 -well, flat-bottomed culture plates in 100 µL culture medium (DMEM containing 10% fetal calve serum, 1% penicillin -streptomycin). Twenty-four hours after seeding the cells, medium was removed and replaced by medium containing test compounds in a final DMSO concentration of 1%. Compounds were tested in duplicates at a single concentration or, for CC50 determination, at 8 concentrations that were prepared via 2 -fold serial dilutions in 1% DMSO/medium. Epirubicin and doxorubicin were used as positive controls in serial dilutions starting from 10 µM, and rifampicin was used as a negative control (at 100 µM). The living cell mass was determined 48 h after treatment with compounds by adding 0.1 volumes of 3 -(4,5-dimethylthiazol-2-yl)-2,5-diphenyltetrazolium bromide (MTT) solution (5 mg/mL sterile PBS) (Sigma, St. Louis, MO) to the wells. After incubating the cells for 30 min at 37 °C (atmosphere containing 5% CO2), medium was removed and MTT crystals were dissolved in 75 µL of a solution containing 10% SDS and 0.5% acetic acid in DMSO. The optical density (OD) of the samples was determined photometrically at 570 nm in a PHERAstar Omega plate reader (BMG labtech, Ortenberg, Germany). To obtain percent viability for each sample, their ODs were related to those of DMSO controls. […]

MtbIspE [2] = target: T1, MtbIspE (Mycobacterium tuberculosis, UniProt P9WKG7); experiment: MtbIspE binding study via MicroScale Thermophoresis (MST); conditions: MST, 20 μM ligand, 200 nM MtbIspE, triplicate; qualitative
MtbIspE [3] = target: T1, MtbIspE; experiment: MtbIspE binding study via thermal shift assay; conditions: read-out: MtbIspE ΔTm at 20 μM
EcTolC = experiment: microbe, parasite or virus in culture; assay type: cell-based; conditions: Escherichia coli, 18 h, LB medium, read-out: EcTolC %inh. At 50 μM
EcK12 = experiment: E. coli growth inhibition, wild-type strain K12; assay type: cell-based, Escherichia coli; conditions: Escherichia coli, 18 h, LB medium, read-out: EcK12 %inh. At 50 μM
HepG2 cells = conditions: read-out: HepG2 CC50; HepG2, 48 h, MTT
physchem = conditions: aqueous with cosolvent or surfactant or cyclodextrin, kinetic from dmso stock, solubility 5% DMSO in PBS
in vitro = conditions: human, HepG2 CC50, HepG2, 48 h, MTT
MtbIspE [4] = target: T1, MtbIspE; experiment: target-directed dynamic combinatorial chemistry (tdDCC), amplification of acylhydrazones in protein-templated vs blank DCL (HPLC-MS/MS, UV 310 nm); assay type: binding; conditions: DCL-3, 24 h, 40 mol % MtbIspE; I1 and K1 integrated as one cluster
Experimental: In this study, we used MtbIspE as target protein and the reversible reaction of hydrazides and aldehydes to form dynamic combinatorial libraries (DCLs) of acylhydrazones. […] To accelerate the reaction at neutral pH, aniline was used as nucleophilic catalyst activating the aldehydes.[2],[4],[19] We analyzed the protein’s effect on the DCLs by comparing HPLC-MS/MS data of blank vs protein-templated (PT) experiments. The experiments spanned 3 days, with periodic sampling (every 2 h, followed by two samples per day after 8 h). The addition of NaOH to raise the pH and halt the reactions ensured the sample composition was preserved for analysis.[19] Templated experiments were conducted in duplicate, and the protein was denatured and removed prior to HPLC-MS/MS analysis.
The tdDCC hits and thus potential MtbIspE binders are amplified in the PT experiment compared to the blank experiment. The first step in the analysis of DCLs is the determination of the equilibrium since the amplification factors need to be calculated when the concentration of products is stable. To determine the evolution of the possible products, it is important to measure the characteristic UV absorbance of the acylhydrazones linker (310 nm) during the HPLC-MS/MS run. The resulting UV peaks are assigned to each product using the MS data (Figures S3–S6). The sum of all peak areas is normalized to 100% in order to obtain the respective relative peak area (RPA) for each product. The RPA values represent relative concentrations, determined at each time point of the blank experiment until the values stabilize. […] However, the rest of the compounds are out of range, making a visual inspection difficult. […] The other three libraries behaved in the same way, reaching equilibrium within 24 h and also maintained stable concentrations beyond (Figures S7–S9). To determine the tdDCC hits, we compared the RPAs of the PT experiments to the blanks at 24 h and set a threshold of at least 50% increase in compound formation. In total, 11 acylhydrazones passed our criteria, with amplification factors ranging from […] to 15.5, qualifying them for resynthesis and further evaluation (Figure 3). During the analysis of chromatograms, challenges arose concerning product identification. Some compound peaks were not neatly separated, forcing us to consider them in clusters, others presented two peaks, likely due to isomers, and were considered separately in our evaluation. Lastly, some compounds were detected by MS, but their respective UV signal interfered with the injection peak or was too low for integration (<1%), both in the blank and PT experiments. Consequently, we excluded these compounds from the analysis (Figure S3–S6).
To a well of a 24-well plate, containing Tris buffer (pH 7.0) were added hydrazides (300 μM each, in DMSO), aldehydes (100 μM each, in DMSO), aniline (20 mM, in DMSO), the protein MtbIspE (25 or 40 μM in Tris buffer at pH 7.0), and an additional amount of DMSO to reach a final concentration of 5% in the DCL with 0.5 mL of end-volume. The DCL was allowed to mix on a plate shaker at room temperature and was frequently monitored via LCMS-MS. For analysis, 30 μL of the corresponding library was mixed with 42 μL acetonitrile and 3 μL of NaOH (1 M), the mixture was centrifuged, and the supernatant was used for the analysis. PT experiments were run in duplicates and the protein was omitted for the blank experiments.
High-resolution mass (HRMS) of final products was determined by HPLC-MS/MS using a Thermo Scientific Q Exactive Focus Orbitrap LC -MS/MS system. All compounds were analyzed for purity by LCMS on Acquity UPLC-SQD system from Waters with a gradient elution of Water (Formic acid 0.1%)/Acetonitrile on an HSS - T3 column (2.1 x 50 mm, Waters), 1.8 µm, at 30°C, PDA detection between 240 -320 nm, and MS detection by simultaneous ES+/ES- ionization in a mass range of 150 -800. The flow is set to 0.9 ml/min, and the […]
gradient time is 1.5 min. […]

T1 sequence (P9WKG7 whole entry): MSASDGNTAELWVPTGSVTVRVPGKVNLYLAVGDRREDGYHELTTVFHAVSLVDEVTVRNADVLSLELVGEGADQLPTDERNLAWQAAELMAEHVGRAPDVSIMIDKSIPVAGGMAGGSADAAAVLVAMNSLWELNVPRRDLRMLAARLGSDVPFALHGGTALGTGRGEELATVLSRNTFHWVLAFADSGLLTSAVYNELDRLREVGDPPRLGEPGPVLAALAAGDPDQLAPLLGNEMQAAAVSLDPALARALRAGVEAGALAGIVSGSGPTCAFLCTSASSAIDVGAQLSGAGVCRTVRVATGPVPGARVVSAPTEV

For `CC(C)Cc1cc(C(=O)N/N=C/c2cc(Cl)ccc2O)[nH]n1` [D1, (E)-N′-(5-Chloro-2-hydroxybenzylidene)-3-isobutyl-1H-pyrazole-5-carbohydrazide], the “solubility in 7H9” value [1] was “insoluble”, the “MtbIspE binding at 20 μM” value (MtbIspE [2]) was “No” and the ΔTm at 20 µM (MtbIspE [3]) was < 0.3 °C. It also gave an inhibition at 50 µM (EcTolC) of 28 ± 11%, an inhibition at 50 µM (EcK12) of 11 ± 4% and a CC50 (HepG2 cells) of 7.9 ± 0.8 µM. For the same compound, the solubility at 5 min (physchem) was 22 ± 9 µM (≈ 7.06 µg/mL) and the CC50 (in vitro) was < 10 µM.
With `O=C(N/N=C/c1cc(Cl)ccc1O)c1cccc(Cl)c1` [K1, (E)-3-Chloro-N′-(5-chloro-2-hydroxybenzylidene)benzohydrazide] the “Amplification factors (DCL-3)” value (MtbIspE [4]) was 2.0, the “solubility in 7H9” value [1] was “insoluble” and the “MtbIspE binding at 20 μM” value (MtbIspE [2]) was “consistently demonstrated binding across all measurements and Yes”. The ΔTm at 20 µM (MtbIspE [3]) was 0.7 °C, the inhibition at 50 µM (EcK12) was < 10% and the CC50 (HepG2 cells) was 7 ± 3 µM. For the same compound, the solubility at 5 min (physchem) was 25 ± 4 µM (≈ 7.73 µg/mL) and the CC50 (in vitro) was < 10 µM.
